Source: patent US20120083522A1, “MODULATION OF INFLAMMATORY RESPONSES BY FACTOR XI” (Isis Pharmaceuitcals, inc., priority 2009, published 2012)
In the oligonucleotide strings, read from the 5' end, every base follows the letter of its sugar. An asterisk marks phosphorothioate; unmarked linkages are phosphodiester. Other units and linkages are bracketed, terminal groups are in braces. A string of capitals states the bases alone. e = 2'-O-(2-methoxyethyl) (MOE); [5mC] = 5-methylcytosine; d = 2'-deoxy (DNA)

Columns and labels:
Format in all cases: cell-based
human Factor XI mRNA [1] = experiment: Antisense inhibition in HepG2 cells by microwalk gapmers, 75 nM, lipofectin (Example 3); settings: HepG2 cells, 75 nM
In short: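 HepG2 cells (10,000 per well) were transfected with 75 nM gapmer using lipofectin and treated for about 24 h. Factor XI mRNA was quantified by real-time PCR, normalized to RiboGreen total RNA and expressed as percent inhibition versus untreated controls.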

human Factor XI mRNA [2] = experiment: Dose-dependent inhibition in HepG2 cells, lipofectin (Example 4); settings: 16 hours
Description: (§1) Cells were plated at a density of 10,000 cells per well and transfected using lipofectin reagent with 9.375 nM, 18.75 nM, 37.5 nM and 75 nM concentrations of antisense oligonucleotide, as specified in Table 9. After a treatment period of approximately 16 hours, RNA was isolated from the cells and Factor XI mRNA levels were measured by quantitative real-time PCR. Human Factor XI primer probe set RTS 2966 was used to measure mRNA levels. Factor XI mRNA levels were adjusted according to total RNA content, as measured by RIBOGREEN®. Results are presented as percent inhibition of Factor XI, relative to untreated control cells.

human Factor XI mRNA [3] = experiment: Dose-dependent inhibition in HepG2 cells, electroporation (Example 4); settings: 16 hours
Description: as §1, with “The gapmers were also transfected via electroporation and their dose dependent inhibition of human Factor XI mRNA was measured. Cells” for “Cells”, “20,000” for “10,000”, “via electroporation” for “using lipofectin reagent”, “0.7 μM, 2.2 μM, 6.7 μM,” for “9.375 nM, 18.75 nM, 37.5 nM”, “20 μM” for “75 nM”, “10.” for “9.”

[4] = oligonucleotides targeted to nucleobases 1275 to 1318 of SEQ ID NO: 1
[5] = oligonucleotides targeted to nucleobases 1018 to 1042 of SEQ ID NO: 1
[6] = oligonucleotides targeted to nucleobases 1062 to 1091 of SEQ ID NO: 1

Substance	% inhibition of human Factor XI mRNA levels (human Factor XI mRNA [1]; [4])	percent inhibition of Factor XI mRNA, relative to untreated control cells (human Factor XI mRNA [2]; 9.375 nM)	percent inhibition of Factor XI mRNA, relative to untreated control cells (human Factor XI mRNA [2]; 18.75 nM)	percent inhibition of Factor XI mRNA, relative to untreated control cells (human Factor XI mRNA [2]; 37.5 nM)	percent inhibition of Factor XI mRNA, relative to untreated control cells (human Factor XI mRNA [2]; 75 nM)	percent inhibition of Factor XI mRNA, relative to untreated control cells (human Factor XI mRNA [3]; 0.7 μM)	percent inhibition of Factor XI mRNA, relative to untreated control cells (human Factor XI mRNA [3]; 2.2 μM)	percent inhibition of Factor XI mRNA, relative to untreated control cells (human Factor XI mRNA [3]; 6.7 μM)	percent inhibition of Factor XI mRNA, relative to untreated control cells (human Factor XI mRNA [3]; 20 μM)	% inhibition of human Factor XI mRNA levels (human Factor XI mRNA [1]; [5])	% inhibition of human Factor XI mRNA levels (human Factor XI mRNA [1]; [6])
416922 (antisense eG*e[5mC]*eA*d[5mC]*dA*dG*dT*dT*dT*d[5mC]*dT*dG*dG*d[5mC]*dA*dG*dG*e[5mC]*e[5mC]*eT) [compound 416922]	94%	14%	25%	49%	75%	35%	51%	77%	91%		
416923 (antisense eT*eG*e[5mC]*dA*d[5mC]*dA*dG*dT*dT*dT*d[5mC]*dT*dG*dG*d[5mC]*dA*dG*eG*e[5mC]*e[5mC]) [compound 416923]	96%	36%	47%	60%	67%	15%	30%	60%	90%		
416924 (antisense eG*eT*eG*d[5mC]*dA*d[5mC]*dA*dG*dT*dT*dT*d[5mC]*dT*dG*dG*d[5mC]*dA*eG*eG*e[5mC]) [compound 416924]	97%	25%	38%	56%	59%	22%	40%	63%	70%		
416926 (antisense eT*eG*eG*dT*dG*d[5mC]*dA*d[5mC]*dA*dG*dT*dT*dT*d[5mC]*dT*dG*dG*e[5mC]*eA*eG) [compound 416926]	93%	31%	43%	63%	82%	47%	71%	91%	94%		
416931 (antisense eG*eG*e[5mC]*dA*dT*dT*dG*dG*dT*dG*d[5mC]*dA*d[5mC]*dA*dG*dT*dT*eT*e[5mC]*eT) [compound 416931]	96%	44%	39%	57%	71%	7%	24%	60%	82%		
416941 (antisense eG*eG*e[5mC]*dA*dG*d[5mC]*dG*dG*dA*d[5mC]*dG*dG*d[5mC]*dA*dT*dT*dG*eG*eT*eG) [compound 416941]	95%	33%	54%	63%	78%	16%	38%	79%	89%		
416984 (antisense e[5mC]*eA*dA*d[5mC]*d[5mC]*dG*dG*dG*dA*dT*dG*dA*dT*dG*dA*eG*eT*eG*e[5mC]*eA) [compound 416984]		26%	50%	62%	81%	43%	54%	88%	90%	89%	
416985 (antisense eG*e[5mC]*dA*dA*d[5mC]*d[5mC]*dG*dG*dG*dA*dT*dG*dA*dT*dG*eA*eG*eT*eG*e[5mC]) [compound 416985]		17%	30%	47%	57%	12%	48%	45%	69%	88%	
416989 (antisense eG*eA*dG*dA*dT*dT*d[5mC]*dT*dT*dT*dG*dG*dG*d[5mC]*d[5mC]*eA*eT*eT*e[5mC]*e[5mC]) [compound 416989]		18%	41%	62%	83%	32%	65%	88%	94%		88%
416993 (antisense e[5mC]*eT*dT*dT*dG*dA*dG*dA*dT*dT*d[5mC]*dT*dT*dT*dG*eG*eG*e[5mC]*e[5mC]*eA) [compound 416993]		15%	37%	50%	68%	22%	48%	87%	92%		91%
417000 (antisense eT*eG*d[5mC]*dA*d[5mC]*dA*dG*dT*dT*dT*d[5mC]*dT*dG*dG*d[5mC]*eA*eG*eG*e[5mC]*e[5mC]) [compound 417000]	89%	35%	47%	58%	70%	46%	73%	76%	89%		
